Measured values taken from patent US20090312284A1, “HISTONE DEACETYLASE INHIBITORS WITH COMBINED ACTIVITY ON CLASS-I AND CLASS-IIB HISTONE DEACETYLASES IN COMBINATION WITH PROTEASOME INHIBITORS” (priority 2006, published 2009).

Experiments:
[1] = tested on: acetylation of tubulin and induction of Hsp 70; assay: Acetylation of tubulin and induction of Hsp 70 in A2780 cells; assay type: cell-based, human; details: A2780 ovarian carcinoma cells, 24 h, 0-3000 nM, Western blot
Experimental: Total cell lysates were prepared and analysed by SDS-PAGE. […] Hsp 70 protein was detected with an antibody from Stressgen (Cat. nr. SPA-810), followed by ECL detection. Appropriate dilutions of antibodies were incubated for either 1-2 h at room temperature or overnight at 4° C. In order to control for equal loading, blots were stripped and re-probed with mouse monoclonal anti-actin IgM (Ab-1, Oncogene Research Products). […] Protein-antibody complexes were then visualized by chemiluminescence (Pierce Chemical Co) or fluorescence (Odyssey) according to the manufacturer's instructions. The experiments were performed three times.

[2] = tested on: acetylation of histone H3 and H4 and induction of p21waf1,cip1; assay: Acetylation of cellular HDAC 1 substrates and induction of p21waf1,cip1 in A2780 cells; assay type: cell-based, human; details: A2780 ovarian carcinoma cells, 24 h, 0-3000 nM, Western blot
Experimental: Total cell lysates were prepared and analysed by SDS-PAGE. Levels of acetylated H3 and H4 histones, total level of H3 proteins and levels p21^waf1,cip1 protein were detected using rabbit polyclonal and mouse monoclonal antibodies, followed by enhanced chemoluminescence (ECL) detection.
Appropriate dilutions of antibodies were incubated for either 1-2 h at room temperature or overnight at 4° C. […] Protein-antibody complexes were then visualized by chemiluminescence (Pierce Chemical Co) or fluorescence (Odyssey) according to the manufacturer's instructions. The experiments were performed three times.

HCT-116 cells = details: p21waf1,cip1 deficient cells as compared to the parental HCT-116 cells; cited from earlier work

Cc1[nH]c2ccccc2c1CCNCc1ccc(/C=C/C(=O)NO)cc1 [LBH-589]
concentration when start of induction of acetylation of tubulin and induction of Hsp 70 is observed [1]: 30 nM

O=C(NO)c1cnc(N2CCN(S(=O)(=O)c3ccc4ccccc4c3)CC2)nc1 [R306465]
concentration when induction of acetylation of histone H3 and H4 and induction of p21waf1,cip1 is observed [2]: 100 nM

O=C(CCCCCCC(=O)Nc1ccccc1)NO [SAHA, suberoylanilide hydroxamic acid]
concentration when induction of acetylation of histone H3 and H4 and induction of p21waf1,cip1 is observed [2]: 3000 nM
concentration when start of induction of acetylation of tubulin and induction of Hsp 70 is observed [1]: 100 nM

CC(/C=C/C(=O)NO)=C\[C@@H](C)C(=O)c1ccc(N(C)C)cc1 [trichostatin A]
increase in resistance to the HDAC inhibitor (HCT-116 cells): 6 fold
